# Reference: patent publication US7659263B2, “Thienopyrrole compound and use thereof as HCV polymerase inhibitor” (Japan Tobacco Inc., priority 2004, dated 2010)
# Structures can show the parent of a compound that is named as a salt.
# Columns and labels:
# NS5B 1b = target: T1, NS5B 1b (Hepatitis C virus genotype 1b, UniProt P26663); assay: Assay of enzyme (HCV polymerase) inhibitory activity, NS5B 1b; format: biochemical
# T1 construct: a region encoding NS5B (J Virol 1991 March, 65(3), 1105-13, 544 amino acids after deletion of 47 amino acids on the C-terminal); 6 His (C); made in house; host or cells: Escherichia coli
# Source text: The evaluation of the HCV polymerase inhibitory activity of the compound of the present invention is explained in the following. This polymerase is an enzyme coded for by the non-structural protein region called NS5B on the genome RNA of HCV (EMBO J., 15:12-22, 1996).
# i) Preparation of enzyme (HCV polymerase)
# Using, as a template, a cDNA clone corresponding to the full length genome RNA of HCV BK strain obtained from the blood of a patient with hepatitis C, a region encoding NS5B (J Virol 1991 March, 65(3), 1105-13, 544 amino acids after deletion of 47 amino acids on the C-terminal) was amplified by PCR. The objective gene was prepared by adding a 6 His tag {base pair encoding 6 continuous histidine (His)} to the 3′ end thereof and transformed to Escherichia coli. The Escherichia coli capable of producing the objective protein was cultured. The obtained cells were suspended in a buffer solution and crushed in a microfluidizer. The supernatant was obtained by centrifugation and applied to various column chromatographys {mono-S, Sephacryl S-200 (Pharmacia)}, inclusive of metal chelate chromatography, to give a standard enzyme product.
# ii) Synthesis of Substrate RNA
# Using a synthetic primer designed based on the sequence of HCV genomic 3′ untranslated region, a DNA fragment (148 bp) containing polyU and 3′X sequence was entirely synthesized and cloned into plasmid pBluescript SK II(+) (Stratagene). The cDNA encoding full length NS5B, which was prepared in i) above, was digested with restriction enzyme KpnI to give a cDNA fragment containing the nucleotide sequence of from the restriction enzyme cleavage site to the termination codon. This cDNA fragment was inserted into the upstream of 3′ untranslated region of the DNA in pBluescript SK II(+) and ligated. The about 450 bp inserted DNA sequence was used as a template in the preparation of substrate RNA. This plasmid was cleaved immediately after the 3′X sequence, linearized and purified by phenol-chloroform treatment and ethanol precipitation to give DNA.
# RNA was synthesized (37° C., 3 hr) by run-off method using this purified DNA as a template, a promoter of pBluescript SK II(+), MEGAscript RNA synthesis kit (Ambion) and T7 RNA polymerase. DNase I was added and the mixture was incubated for 1 hr. The template DNA was removed by decomposition to give a crude RNA product. This crude product was treated with phenol-chloroform and purified by ethanol precipitation to give the objective substrate RNA.
# This RNA was applied to formaldehyde denaturation agarose gel electrophoresis to confirm the quality thereof and preserved at −80° C. iii) Assay of enzyme (HCV polymerase) inhibitory activity A test substance (compound of the present invention) and a reaction mixture (30 μl) having the following composition were reacted at 25° C. for 90 min.
# 10% Trichloroacetic acid at 4° C. and 1% sodium pyrophosphate solution (150 μl) were added to this reaction mixture to stop the reaction. The reaction mixture was left standing in ice for 15 min to insolubilize RNA. This RNA was trapped on a glass filter (Whatman GF/C and the like) upon filtration by suction. This filter was washed with a solution containing 1% trichloroacetic acid and 0.1% sodium pyrophosphate, washed with 90% ethanol and dried. A liquid scintillation cocktail (Packard) was added and the radioactivity of RNA synthesized by the enzyme reaction was measured on a liquid scintillation counter.
# The HCV polymerase inhibitory activity (IC50) of the compound of the present invention was calculated from the values of radioactivity of the enzyme reaction with and without the 20 test substance. […]
# NS5B 1a = target: T2, NS5B 1a (Hepatitis C virus genotype 1a, UniProt P27958); assay: Assay of enzyme (HCV polymerase) inhibitory activity, NS5B 1a; format: biochemical; settings: HCV polymerase NS5B 1a; [3H]UTP incorporation, 25° C., 90 min
# T2 construct: NS5B 1a
# T2 sequence (P27958 2421-3011): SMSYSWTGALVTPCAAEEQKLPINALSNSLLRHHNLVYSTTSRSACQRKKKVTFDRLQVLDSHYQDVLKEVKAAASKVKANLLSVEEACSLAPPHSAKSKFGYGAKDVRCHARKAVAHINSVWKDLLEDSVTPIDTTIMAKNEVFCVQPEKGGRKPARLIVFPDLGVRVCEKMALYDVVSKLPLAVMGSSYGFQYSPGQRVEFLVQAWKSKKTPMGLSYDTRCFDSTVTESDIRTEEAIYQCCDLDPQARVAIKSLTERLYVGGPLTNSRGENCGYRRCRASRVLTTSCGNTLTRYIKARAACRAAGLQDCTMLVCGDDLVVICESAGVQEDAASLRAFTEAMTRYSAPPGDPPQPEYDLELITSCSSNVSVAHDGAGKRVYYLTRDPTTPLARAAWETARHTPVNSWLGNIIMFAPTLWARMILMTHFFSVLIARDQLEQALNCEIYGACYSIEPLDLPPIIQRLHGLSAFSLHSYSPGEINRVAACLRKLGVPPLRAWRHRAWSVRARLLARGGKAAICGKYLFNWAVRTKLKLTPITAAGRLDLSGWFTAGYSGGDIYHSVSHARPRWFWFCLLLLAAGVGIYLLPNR
# T1 sequence (P26663 2420-2963): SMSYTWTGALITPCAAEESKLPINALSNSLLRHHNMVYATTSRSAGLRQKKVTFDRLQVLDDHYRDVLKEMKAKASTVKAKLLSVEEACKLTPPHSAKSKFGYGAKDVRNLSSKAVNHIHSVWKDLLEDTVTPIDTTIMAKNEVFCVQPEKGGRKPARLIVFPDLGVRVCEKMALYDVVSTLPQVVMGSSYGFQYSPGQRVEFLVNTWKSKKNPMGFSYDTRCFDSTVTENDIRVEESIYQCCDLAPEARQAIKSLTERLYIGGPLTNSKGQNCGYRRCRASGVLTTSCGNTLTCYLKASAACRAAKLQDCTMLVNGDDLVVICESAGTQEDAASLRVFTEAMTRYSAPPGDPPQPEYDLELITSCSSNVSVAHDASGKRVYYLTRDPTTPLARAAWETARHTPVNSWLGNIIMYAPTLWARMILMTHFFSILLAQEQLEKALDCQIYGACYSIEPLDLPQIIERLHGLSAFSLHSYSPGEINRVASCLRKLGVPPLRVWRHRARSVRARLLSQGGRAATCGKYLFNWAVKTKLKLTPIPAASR
Compound,IC50 (NS5B 1b),IC50 (NS5B 1a)
"O=C(O)c1cc2c(s1)c(C1CCCCC1)c1n2CCN(CCN2CCCCC2)c2cc(Cl)ccc2-1 [Example 20, 8-chloro-11-cyclohexyl-6-[2-(piperidin-1-yl)ethyl]-5,6-dihydro-4H-1-thia-3b,6-diazabenzo[e]cyclopenta[a]azulene-2-carboxylic acid dihydrochloride]",10 to 100 nM,10 to 100 nM
"CCN1CCN(C(=O)CN2CCn3c(c(C4CCCCC4)c4sc(C(=O)O)cc43)-c3ccc(C)cc32)CC1 [Example 35, 11-cyclohexyl-6-[2-(4-ethylpiperazin-1-yl)-2-oxoethyl]-8-methyl-5,6-dihydro-4H-1-thia-3b,6-diazabenzo[e]cyclopenta[a]azulene-2-carboxylic acid dihydrochloride]",10 to 100 nM,10 to 100 nM
"Cc1ccc2c(c1)N(CCN1CCCC(C)C1)CCn1c-2c(C2CCCCC2)c2sc(C(=O)O)cc21 (stereo not drawn) [Example 26, 11-cyclohexyl-8-methyl-6-[2-(3-methylpiperidin-1-yl)ethyl]-5,6-dihydro-4H-1-thia-3b,6-diazabenzo[e]cyclopenta[a]azulene-2-carboxylic acid dihydrochloride]",10 to 100 nM,10 to 100 nM
"CCOc1ccc2c(c1)N(C)CCn1c-2c(C2CCCCC2)c2sc(C(=O)O)cc21 [Example 44, 11-cyclohexyl-8-ethoxy-6-methyl-5,6-dihydro-4H-1-thia-3b,6-diazabenzo[e]cyclopenta[a]azulene-2-carboxylic acid]",10 to 100 nM,10 to 100 nM
"O=C(O)c1cc2c(s1)c(C1CCCCC1)c1n2CCOc2cc(OCc3cc(N4CCCC4=O)ccc3N3CCOCC3)ccc2-1 [Example 16, 11-cyclohexyl-8-[2-(morpholin-4-yl)-5-(2-oxopyrrolidin-1-yl)benzyloxy]-4,5-dihydro-6-oxa-1-thia-3b-azabenzo[e]cyclopenta[a]azulene-2-carboxylic acid hydrochloride]",< 10 nM,10 to 100 nM
"O=C(O)c1cc2c(s1)c(C1CCCCC1)c1n2CCOc2ccccc2-1 [Example 15, 11-cyclohexyl-4,5-dihydro-6-oxa-1-thia-3b-azabenzo[e]cyclopenta[a]azulene-2-carboxylic acid]",10 to 100 nM,100 to 1000 nM
"CS(=O)(=O)c1ccc(N2CCOCC2)c(COc2ccc3c(c2)OCCn2c-3c(C3CCCCC3)c3sc(C(N)=O)cc32)c1 [Example 4, 11-cyclohexyl-8-[5-methanesulfonyl-2-(morpholin-4-yl)benzyloxy]-4,5-dihydro-6-oxa-1-thia-3b-azabenzo[e]cyclopenta[a]azulene-2-carboxamide]",< 10 nM,10 to 100 nM
"CC1CCCN(CCN2CCn3c(c(C4CCCCC4)c4sc(C(=O)O)cc43)-c3ccc(Cl)cc32)C1 (stereo not drawn) [Example 30, 8-chloro-11-cyclohexyl-6-[2-(3-methylpiperidin-1-yl)ethyl]-5,6-dihydro-4H-1-thia-3b,6-diazabenzo[e]cyclopenta[a]azulene-2-carboxylic acid dihydrochloride]",< 10 nM,10 to 100 nM
"COCC[C@@H]1CCCN(CCN2CCn3c(c(C4CCCCC4)c4sc(C(=O)O)cc43)-c3ccc(Cl)cc32)C1 [Example 31, (S)-8-chloro-11-cyclohexyl-6-{2-[3-(2-methoxyethyl)piperidin-1-yl]ethyl}-5,6-dihydro-4H-1-thia-3b,6-diazabenzo[e]cyclopenta[a]azulene-2-carboxylic acid dihydrochloride]",< 10 nM,10 to 100 nM
"CCOc1ccc2c(c1)OCCn1c-2c(C2CCCCC2)c2sc(C(=O)O)cc21 [Example 41, 11-cyclohexyl-8-ethoxy-4,5-dihydro-6-oxa-1-thia-3b-azabenzo[e]cyclopenta[a]azulene-2-carboxylic acid]",10 to 100 nM,10 to 100 nM
"Cc1ccc2c(c1)N(C)CCn1c-2c(C2CCCCC2)c2sc(C(=O)NC3(C(=O)Nc4ccc(/C=C/C(=O)O)cc4)CCC3)cc21 [Example 38, (E)-3-[4-({1-[(11-cyclohexyl-6,8-dimethyl-5,6-dihydro-4H-1-thia-3b,6-diazabenzo[e]cyclopenta[a]azulene-2-carbonyl)amino]cyclobutanecarbonyl)amino)phenyl]acrylic acid]",10 to 100 nM,10 to 100 nM
"O=C(O)c1cc2c(s1)c(C1CCCCC1)c1n2CCOc2c-1cccc2N(CCN1CCOCC1)CCN1CCOCC1 [Example 46, 7-{bis[2-(morpholin-4-yl)ethyl]amino}-1l-cyclohexyl-4,5-dihydro-6-oxa-1-thia-3b-azabenzo[e]cyclopenta[a]azulene-2-carboxylic acid trihydrochloride]",< 10 nM,10 to 100 nM
"Cc1ccc2c(c1)N(CCN1CCCOCC1)CCn1c-2c(C2CCCCC2)c2sc(C(=O)O)cc21 [Example 28, 11-cyclohexyl-8-methyl-6-[2-(1,4-oxazepan-4-yl)ethyl]-5,6-dihydro-4H-1-thia-3b,6-diazabenzo[e]cyclopenta[a]azulene-2-carboxylic acid dihydrochloride]",10 to 100 nM,10 to 100 nM
"CS(=O)(=O)c1ccc(N2CCOCC2)c(COc2ccc3c(c2)OCCn2c-3c(C3CCCCC3)c3sc(C(=O)O)cc32)c1 [Example 3, 11-cyclohexyl-8-[5-methanesulfonyl-2-(morpholin-4-yl)benzyloxy]-4,5-dihydro-6-oxa-1-thia-3b-azabenzo[e]cyclopenta[a]azulene-2-carboxylic acid]",< 10 nM,10 to 100 nM
"COc1ccc2c(c1)OCCn1c-2c(C2CCCCC2)c2sc(C(=O)NC3(C(=O)Nc4ccc(/C=C/C(=O)O)cc4)CCC3)cc21 [Example 37, (E)-3-[4-({1-[(11-cyclohexyl-8-methoxy-4,5-dihydro-6-oxa-1-thia-3b-azabenzo[e]cyclopenta[a]azulene-2-carbonyl)amino]cyclobutanecarbonyl}amino)phenyl]acrylic acid]",10 to 100 nM,10 to 100 nM
"COc1ccc2c(c1)OCCn1c-2c(C2CCCCC2)c2sc(C(=O)NC3(C(=O)Nc4cccc(/C=C/C(=O)O)c4)CCC3)cc21 [Example 40, (E)-3-[3-({1-[(11-cyclohexyl-8-methoxy-4,5-dihydro-6-oxa-1-thia-3b-azabenzo[e]cyclopenta[a]azulene-2-carbonyl)amino]cyclobutanecarbonyl}amino)phenyl]acrylic acid]",10 to 100 nM,10 to 100 nM
"O=C(O)c1cc2c(s1)c(C1CCCCC1)c1n2CCOc2c-1cccc2N(CCN1CCCCC1)CCN1CCCCC1 [Example 42, 7-{bis[2-(piperidin-1-yl)ethyl]amino}-11-cyclohexyl-4,5-dihydro-6-oxa-1-thia-3b-azabenzo[e]cyclopenta[a]azulene-2-carboxylic acid trihydrochloride]",< 10 nM,10 to 100 nM
"O=C(O)c1cc2c(s1)c(C1CCCCC1)c1n2CCN(CCN2CCCCCCC2)c2cc(Cl)ccc2-1 [Example 29, 6-[2-(azocan-1-yl)ethyl]-8-chloro-11-cyclohexyl-5,6-dihydro-4H-1-thia-3b,6-diazabenzo[e]cyclopenta[a]azulene-2-carboxylic acid dihydrochloride]",10 to 100 nM,10 to 100 nM
